From patent US20260217660A1, “INHIBITORS OF ACTIVIN RECEPTOR TYPE I (ACVRI) AND ACTIVIN RECEPTOR LIKE TYPE I (ACVRLI), AND METHODS USING SAME” (Baylor College of Medicine, priority 2023, published 2026) come the findings set out here.

Residue numbers refer to the chain shown, from its start. Where “and” joins values, the source holds several entries; their conditions need not be identical. Equal values may be shown once. A value given as a limit tells only on which side of the number the result lay.

One data set has as its target T1, ACVR1 (Homo sapiens, UniProt Q04771).
T1 construct: purchased ThermoFisher
T1 sequence (Q04771 21-509): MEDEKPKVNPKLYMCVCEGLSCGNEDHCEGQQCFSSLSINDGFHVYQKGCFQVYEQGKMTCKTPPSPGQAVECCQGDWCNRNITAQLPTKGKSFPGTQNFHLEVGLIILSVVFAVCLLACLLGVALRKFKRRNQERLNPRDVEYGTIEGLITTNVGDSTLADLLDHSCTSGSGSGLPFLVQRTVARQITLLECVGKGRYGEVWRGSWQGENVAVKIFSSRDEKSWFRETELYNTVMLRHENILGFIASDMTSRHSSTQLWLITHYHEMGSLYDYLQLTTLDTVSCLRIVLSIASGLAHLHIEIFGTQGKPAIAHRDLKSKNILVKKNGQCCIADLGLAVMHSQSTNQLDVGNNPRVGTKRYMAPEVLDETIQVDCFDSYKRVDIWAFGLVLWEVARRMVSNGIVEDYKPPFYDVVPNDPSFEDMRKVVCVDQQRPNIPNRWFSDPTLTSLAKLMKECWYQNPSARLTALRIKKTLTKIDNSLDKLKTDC
The experiment in a line: ThermoFisher (Lantha) kinase assay, inhibition of ACVR1. The data set is classed as biochemical. The note with it: for IC50: ThermoFisher Assay, in vitro.

For data set [1], the target named is T2, ACVRL1 (Homo sapiens, UniProt P37023).
T2 construct: purchased ThermoFisher
T2 sequence (P37023 22-503): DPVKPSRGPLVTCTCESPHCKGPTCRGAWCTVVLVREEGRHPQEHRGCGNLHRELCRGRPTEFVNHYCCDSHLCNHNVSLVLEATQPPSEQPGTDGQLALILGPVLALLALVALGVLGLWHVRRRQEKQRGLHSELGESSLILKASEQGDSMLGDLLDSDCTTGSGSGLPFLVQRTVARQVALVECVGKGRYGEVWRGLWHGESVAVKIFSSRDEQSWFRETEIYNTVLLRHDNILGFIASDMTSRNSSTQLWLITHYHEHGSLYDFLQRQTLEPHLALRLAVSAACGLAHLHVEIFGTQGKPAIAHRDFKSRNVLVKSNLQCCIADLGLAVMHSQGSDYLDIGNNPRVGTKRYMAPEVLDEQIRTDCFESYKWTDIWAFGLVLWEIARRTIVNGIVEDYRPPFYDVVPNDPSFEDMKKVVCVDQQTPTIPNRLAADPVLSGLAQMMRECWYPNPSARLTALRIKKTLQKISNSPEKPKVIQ
The experiment in a line: ThermoFisher (Lantha) kinase assay, inhibition of ACVRL1. Type of data set: biochemical. The settings on record: in vitro, NA = not active at 1 μM.

Another data set addresses T3, BMPR1A (Homo sapiens, UniProt P36894).
T3 construct: purchased ThermoFisher
The data set can be described thus: ThermoFisher Lantha kinase screen, BMPR1A. Type of data set: biochemical. The settings on record: in vitro. The text has this:
(§1) FIGS. 3A-3B depict a representation of KINOMEscan (Eurofins) binding data of CDD-2342 across the human kinome phylogenetic tree (FIG. 3A) and ThermoFisher Lantha kinase screen (FIG. 3B). FIG. 3A: The size of the circles (indicated with lines) are correlated with the affinity of ligand binding (i.e., larger circle, greater binding affinity). […] FIG. 3B: Using the ThermoFisher Lantha kinase screening assay, kinase specificity for ACVR1>ACVRL1>>BMPR1A>BMPR1B was observed.
(§2) Additionally, CDD-2342 is a >1000-fold better inhibitor of ACVR1 than non-TGFβ family kinases (FIGS. 3A-3B).

The target in a further data set is T4, BMPR1B (Homo sapiens, UniProt O00238).
T4 construct: purchased ThermoFisher
T4 sequence (O00238 14-502): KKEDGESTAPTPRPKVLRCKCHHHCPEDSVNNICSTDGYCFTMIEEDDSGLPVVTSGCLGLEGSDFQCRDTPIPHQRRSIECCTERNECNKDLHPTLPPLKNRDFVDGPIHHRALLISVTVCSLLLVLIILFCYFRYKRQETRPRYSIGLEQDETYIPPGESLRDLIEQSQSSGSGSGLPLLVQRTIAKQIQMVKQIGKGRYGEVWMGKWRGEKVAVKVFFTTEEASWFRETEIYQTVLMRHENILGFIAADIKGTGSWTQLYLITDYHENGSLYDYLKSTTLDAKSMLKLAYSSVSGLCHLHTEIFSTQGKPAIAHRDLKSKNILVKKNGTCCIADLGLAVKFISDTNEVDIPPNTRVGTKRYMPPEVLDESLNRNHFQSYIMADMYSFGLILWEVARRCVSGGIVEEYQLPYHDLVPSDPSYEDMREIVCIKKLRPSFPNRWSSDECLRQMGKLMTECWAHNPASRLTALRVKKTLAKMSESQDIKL
The data set can be described thus: ThermoFisher Lantha kinase screen, BMPR1B. Type of data set: biochemical. The note with it: in vitro.
Text: as §1, §2

The target of a further data set is T5, ACVR1^WT (Homo sapiens, UniProt Q04771).
T5 sequence (Q04771 21-509): T1 sequence (Q04771 21-509)
The experiment in a line: Promega NanoBRET live-cell target engagement, ACVR1. The settings on record: in cellulo; NI = No inhibition at 40 μM. The data set is classed as cell-based. From the text: (§3) The Promega NanoBRET target engagement system involves cell-based competitive displacement of a fluorescent NanoBRET tracer bound reversibly to a NanoLuc fusion protein. Test compounds displace the tracer dependent on their affinity for the target and reduce […] the NanoBRET signal. […]
A general note: BRET reads energy transfer from a luciferase to a nearby fluorophore.

The target in a further data set is T6, ACVR1^R206H (Homo sapiens, UniProt Q04771, R206H).
T6 sequence (Q04771 21-509 R206H): T1 sequence (Q04771 21-509) with R186H
The data set can be described thus: Promega NanoBRET live-cell target engagement, ACVR1 (R206H). Type of data set: cell-based. The note with it: in cellulo; NI = No inhibition at 40 μM.
Text: as §3

The target in data set [2] is T2, ACVRL1. The experiment in a line: Promega NanoBRET live-cell target engagement, ACVRL1. The data set is classed as cell-based. The settings on record: in cellulo; NI = No inhibition at 40 μM. The text has this:
The Promega NanoBRET target engagement system involves cell-based competitive displacement of a fluorescent NanoBRET tracer bound reversibly to a NanoLuc fusion protein. Test compounds displace the tracer dependent on their affinity for the target and reduce loss of the NanoBRET signal.
Further, HEK29T cells with stable expression of a BMP reporter element driving luciferase expression can be used to test inhibition of BMP-induced luciferase transactivation. […] Additionally, utilizing the HEPG2 cell system described herein, responsiveness to activin and induction of Hepcidin (HAMP) gene expression can be probed in the presence and absence of ACVR1 inhibitors, as well as the influence of tacrolimus on activin-induced hepcidin gene expression.
Thus, the in cellulo assays described herein comprise a luciferase reporter cell line system.

The nature of data set [3]: Metabolic stability in mouse liver microsomes. Type of data set: in vitro ADME. The note with it: some cells add hours in brackets. From the text:
(§4) Exemplary compounds of the present disclosure have been evaluated for metabolic stability in mouse and human liver microsomes.
(Liver microsomes are vesicles of endoplasmic reticulum, rich in cytochrome P450 enzymes.)

The nature of data set [4]: Metabolic stability in human liver microsomes. Type of data set: in vitro ADME. The note with it: some cells add hours in brackets.
Text: as §4

Data set [5] concerns BMP2-induced luciferase activity in 293T-BRE-reporter cells. The experiment in a line: BMP2-induced luciferase reporter activity in 293T-BRE reporter cells. The data set is classed as cell-based. The settings on record: 30 min pre-treatment, 5 ng/ml BMP2, 6 hours. As for the experimental part: BMP2-dependent luciferase reporter activation was quantified after 6 hours using the Promega BrightGLO luciferase system on a Tecan Infinity M1000 Pro plate reader.
FIG. 10 provides a bar graph depicting inhibition of BMP2-induced luciferase activity in 293T-BRE-reporter cells. Approximately 20,000 cells per well were plated in a 96-well plate and allowed to attach overnight. […] Cells were then stimulated with vehicle or 5 ng/ml BMP2 for 6 hours. Luciferase transactivation was assessed using the Promega BrightGLO luciferase system (Promega) and the signal was quantified using a plate reader (M1000 Pro).
Background: Reporter assays use an easily measured gene product as a stand-in for the process of interest.

The subject of a further data set is human kinome. The experiment in a line: KINOMEscan (Eurofins) binding across the human kinome. The settings on record: tested at a dose of 1 μM.
Text: as §1

Data set [6] can be described thus: Pharmacokinetic study in mice, oral gavage. The note with it: mouse, in vivo, 50 mg/kg oral gavage, n = 4, mean ± SD. From the text: (§5) The present disclosure further provides exemplary pharmacokinetic data for compound CDD-2789.
Data set [7] is described as follows: Plasma ALT and AST levels in mice after treatment. Type of data set: in vivo. The settings on record: 24 h post-administration, individual mice No. 1-4.
Text: as §5

A further data set relates to HepG2 cells. The data set can be described thus: Cytotoxicity in HepG2 cells (Cell Titer GLO, cellular ATP). The settings on record: 24 hours, concentrations up to 100 μM. The data set is classed as cell-based.
The subject of data set [8] is pSMAD1/5 in FOP fibroblasts (FOP GM00513). The experiment in a line: BMP2-induced pSMAD1/5 Western blot in primary FOP fibroblasts. Type of data set: cell-based, human. The settings on record: 1, 5, 25 μM, 30 min pre-treatment, 5 ng/mL BMP2 45 min. Here is the method: (§6) FIG. 11 depicts inhibition of phosphorylated SMAD1/5 (pSMAD1/5) in primary WT and FOP fibroblasts. […] Subsequently, the fibroblasts were treated with vehicle (i.e., DMSO) or 5 ng/mL BMP2 in the presence of the inhibitors for 45 minutes. Cell lysates were then probed with antibodies against pSMAD1/5, total SMAD5, total SMAD1, and GAPDH (i.e., loading control) using a Western blot.

The test system of data set [9] is pSMAD1/5 in WT fibroblasts (WT GM01652). The experiment in a line: BMP2-induced pSMAD1/5 Western blot in primary WT fibroblasts. Type of data set: cell-based, human. The settings on record: 1, 5, 25 μM, 30 min pre-treatment, 5 ng/mL BMP2 45 min. Here is the method:
as §6

T3 sequence (P36894 24-532): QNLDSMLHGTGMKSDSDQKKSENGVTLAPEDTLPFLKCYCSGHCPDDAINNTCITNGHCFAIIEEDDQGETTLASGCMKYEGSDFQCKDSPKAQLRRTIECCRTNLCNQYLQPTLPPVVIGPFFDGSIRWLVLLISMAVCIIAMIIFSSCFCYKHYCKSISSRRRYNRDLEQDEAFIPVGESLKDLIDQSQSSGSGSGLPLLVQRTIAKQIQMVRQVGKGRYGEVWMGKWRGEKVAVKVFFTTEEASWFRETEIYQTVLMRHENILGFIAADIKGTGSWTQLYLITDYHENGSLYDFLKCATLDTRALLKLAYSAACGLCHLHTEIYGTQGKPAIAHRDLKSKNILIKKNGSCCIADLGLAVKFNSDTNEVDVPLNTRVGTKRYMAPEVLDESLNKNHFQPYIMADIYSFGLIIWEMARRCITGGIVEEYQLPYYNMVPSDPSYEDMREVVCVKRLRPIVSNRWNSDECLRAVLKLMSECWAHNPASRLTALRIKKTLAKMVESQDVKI

Broadly, the IC50 is the point on the concentration scale where inhibition reaches its midpoint. Lower therefore signals higher potency. As to `COc1cc(-c2nc3ccc(C(=O)NCCCN4CCN(c5cccc(C)c5C)CC4)cc3n2C2CCC2)cc(OC)c1OC` [CDD-2342, 1-cyclobutyl-N-(3-(4-(2,3-dimethylphenyl)piperazin-1-yl)propyl)-2-(3,4,5-trimethoxyphenyl)-1H-benzo[d]imidazole-6-carboxamide], the “fold better inhibitor of ACVR1 than non-TGFβ family kinases” value at ACVR1 (FIGS. 3A-3B) is above 1000 fold. The IC50 was 6.1 nM against ACVR1; 18.8 nM on ACVRL1 [1]; 257 nM at BMPR1A; 687 nM on BMPR1B; 830 nM and 810 nM on ACVR1^WT; 1470 nM and 1480 nM on ACVR1^R206H. For the same compound, at ACVRL1 [2], the IC50 was 11100 nM and 11400 nM. Also, on ACVR1 (ThermoFisher Lantha kinase screening assay, FIG. 3B), the “kinase specificity (rank order)” value is given as “ACVR1>ACVRL1>>BMPR1A>BMPR1B”. The “Metabolism MLM” value in data set [3] amounted to 0 min. In addition, the “Metabolism HLM” value in data set [4] was 0.5 min. The “inhibition of BMP2-induced reporter activity” value in data set [5] (1 μM, 5 μM, 10 μM) is given as “significantly inhibits”. The “off-target binding across the human kinome” value in the data set with human kinome is recorded as “minimal off-target binding”.

As to `CNC(=O)[C@H]1C[C@H](n2c(-c3cc(OC)cc(OC)c3)nc3ccc(C(=O)NCCCN(C)C)cc32)C1` [CDD-2686, 2-(3,5-dimethoxyphenyl)-N-(3-(dimethylamino)propyl)-1-((1r,3r)-3-(methylcarbamoyl)cyclobutyl)-1H-benzo[d]imidazole-6-carboxamide], the IC50 was 34.3 nM against ACVR1; 72.2 nM against ACVRL1 [1]; 28200 nM against ACVR1^WT; 29600 nM against ACVR1^R206H; above 40000 nM at ACVRL1 [2].

With `CNC(=O)[C@H]1C[C@H](n2c(-c3cc(OC)ccc3OC)nc3ccc(C(=O)NCCCN(C)C)cc32)C1` [CDD-2687, 2-(2,5-dimethoxyphenyl)-N-(3-(dimethylamino)propyl)-1-((1r,3r)-3-(methylcarbamoyl)cyclobutyl)-1H-benzo[d]imidazole-6-carboxamide], the IC50 against ACVR1 was 25.1 nM; against ACVRL1 [1], 78.7 nM; against ACVR1^WT, above 40000 nM; at ACVR1^R206H it was above 40000 nM; at ACVRL1 [2], above 40000 nM.

As usually defined, the half-life is how long it takes for the measured level to halve. Higher therefore signals slow loss. With `COc1cc(-c2nc3ccc(C(=O)NCCCN(C)C)cc3n2C2CCC2)cc(OC)c1OC` [CDD-2789, 1-cyclobutyl-N-(3-(dimethylamino)propyl)-2-(3,4,5-trimethoxyphenyl)-1H-benzo[d]imidazole-6-carboxamide], on ACVRL1 [1], inhibition was half-maximal at 9.9 nM (IC50). Further, the “Metabolism MLM (Min)” value in [3] is 505 (8.4 h) Min. Moreover, in data set [4], the “Metabolism HLM (Min)” value is 2767 (46.1 h) Min. Besides, in data set [6], the half-life was around 3.42 h. Moreover, in [7], the “Plasma ALT” value was 21.83 IU/L and 165.48 IU/L and 25.81 IU/L and 23.60 IU/L; the “Plasma AST” value is 30.76 IU/L and 141.26 IU/L and 42.08 IU/L and 55.52 IU/L. Besides, the “inhibition of BMP2-induced luciferase activity” value in [5] (0.2, 1, 5, 25 μM) is listed as “Potent inhibition”. For the same compound, the “cytotoxicity (cell viability, cellular ATP)” value in the data set with HepG2 cells is given as “no cytotoxicity”. Also, the “suppression of BMP2-induced pSMAD1/5 activation, FOP fibroblasts” value in data set [8] is reported as “suppressed”. Further, the “suppression of BMP2-induced pSMAD1/5 activation, WT fibroblasts” value in data set [9] is “suppressed”.

Turning to “N-(3-(4-benzoylpiperazin-1-yl)propyl)-1-cyclobutyl-2-(3,4,5-trimethoxyphenyl)-1H-benzo[d]imidazole-6-carboxamide [CDD-2791]”, the IC50 at ACVR1 was 7.9 nM; against ACVRL1 [1] it was 14.6 nM; against ACVR1^WT, 1080 nM; at ACVR1^R206H it was 2600 nM; at ACVRL1 [2], above 40000 nM. Besides, the “Metabolism MLM” value in [3] was 2.8 min. Besides, the “Metabolism HLM” value in [4] is 15.4 min.
